The source of these data is patent US12270016B1, “Structure and function of modular microfluidic device for in-vitro modeling of human organs” (Alfaisal University, priority 2024, dated 2025).

In assay [1] the test system is differentiated adipocytes. The experiment in a line: Glucose uptake by the adipocytes (2-NBDG glucose uptake assay kit) in microfluidic device. It counts as cell-based, human. The procedure: (§1) Cell Culture: In vitro model of the human inflamed adipose tissue (adipocyte/immune cell coculture): Prior to seeding the cells into the microfluidic device, the fluidic compartments underwent a sterilization process by filling them with 70% ethanol for a minimum of 4 hours. Afterward, the microfluidic devices were washed with deionized water, and each microfluidic device was loaded with 100 μL of Poly-L-lysine solution (0.1 mg/mL in H2O) and incubated overnight at 37° C. The microfluidic devices were then washed again, first with sterilized deionized water and then with phosphate-buffered saline (PBS). Next, the microfluidic devices were primed with a preadipocyte growth medium from (Cell Applications). […] Cell viability and morphological changes were monitored using a microscope. […] The concentrations of Tumor Necrosis Factor (TNFα) and Interleukin-6 (IL-6) in the supernatants were measured using an ELISA method. […] The percentage of calcein-AM-labeled cells was used to quantify cell viability. The growth and morphology of the cells were regularly monitored under the microscope. […] To assess cell differentiation of the adipocytes, the lipid content within adipocytes was monitored by staining the lipid droplets with Oil Red O (Sigma-Aldrich, St. Louis, MO, USA). […]

Assay [2] relates to Adipocytes and U937 cells. The experiment in a line: Cytokine immunoassay (ELISA) of supernatants from adipocyte/immune cell co-culture in VasChip3x2 microfluidic device. Conditions: inflammation state induced with 100 ng/ml LPA. The class given is cell-based, human. The procedure:
as §1
For orientation: ELISA stands for enzyme-linked immunosorbent assay.

As for insulin, the glucose uptake result in assay [1] (adipocyte monoculture, after insulin treatment) is recorded as “significant glucose uptake”.

On to lysophosphatidic acid [LPA], for which the “cytokine secretion (TNF and IL-6 in the supernatants)” value in assay [2] is given as “significant increase”. In addition, the glucose uptake entry in assay [1] (adipocyte/U937 co-culture, inflammation state induced with 100 ng/ml LPA) is listed as “decrease”.
